Among the data in patent US6441021B1, “Sulfonated amino acid derivatives and metalloproteinase inhibitors containing the same” (Shionogi & Co., Ltd., priority 1996, dated 2002) are melting point and IC50 values, retold here.

The target of data set [1] is T1, MMP-9 (92 kDa, gelatinase B; type IV collagenase) (Homo sapiens, UniProt P14780).
T1 construct: endogenous in cells; enzyme purified from the conditioned medium
The data set is described as follows: Assay of type IV collagenase inhibitors: activated MMP-9 with type IV collagenase activity kit substrate, fluorescent intensity. The class given is biochemical.

Structures are written as SMILES.

T1 sequence (P14780 107-707 limits assumed): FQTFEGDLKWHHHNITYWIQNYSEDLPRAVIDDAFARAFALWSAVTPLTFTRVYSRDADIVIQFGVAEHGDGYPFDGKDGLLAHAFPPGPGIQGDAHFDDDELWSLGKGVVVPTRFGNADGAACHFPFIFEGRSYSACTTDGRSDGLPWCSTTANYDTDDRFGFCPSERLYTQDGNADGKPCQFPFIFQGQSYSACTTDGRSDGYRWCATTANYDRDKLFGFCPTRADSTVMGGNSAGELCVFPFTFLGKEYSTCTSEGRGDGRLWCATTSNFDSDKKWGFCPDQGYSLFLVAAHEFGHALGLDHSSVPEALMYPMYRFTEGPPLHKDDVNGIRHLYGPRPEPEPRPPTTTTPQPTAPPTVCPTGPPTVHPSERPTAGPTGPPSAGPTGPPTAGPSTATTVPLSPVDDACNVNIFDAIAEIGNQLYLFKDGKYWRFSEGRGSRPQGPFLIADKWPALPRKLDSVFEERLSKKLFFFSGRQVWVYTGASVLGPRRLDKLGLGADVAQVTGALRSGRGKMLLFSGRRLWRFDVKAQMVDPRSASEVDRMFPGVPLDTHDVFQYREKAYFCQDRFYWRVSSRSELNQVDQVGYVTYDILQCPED

`O=C(O)[C@@H](Cc1ccccc1)NS(=O)(=O)c1ccc(-c2nnn(-c3ccc(C(F)(F)F)cc3)n2)cc1` [Example 229] displayed a melting point of 197 to 198 °C. The IC50 in data set [1] came to 215 nM.
In the same order, the values of `CC(C)(C)c1ccc(-n2nnc(-c3ccc(S(=O)(=O)N[C@H](Cc4ccccc4)C(=O)O)cc3)n2)cc1` [Example 236] are 224 to 226 °C and 304 nM.
`O=C(O)[C@@H](Cc1ccccc1)NS(=O)(=O)c1ccc(-c2nnn(-c3ccc(Oc4ccccc4)cc3)n2)cc1` [Example 238] had a melting point of 182 to 184 °C. Moreover, the IC50 in data set [1] was 2850 nM.
In the same order, the values of `O=C(O)[C@@H](Cc1ccccc1)NS(=O)(=O)c1ccc(-c2nnn(-c3ccc(O)cc3)n2)cc1` [Example 239] are 226 to 228 °C and 243 nM.
In the same order, the values of `CC(C)[C@@H](NS(=O)(=O)c1ccc(-c2nnn(-c3ccc(Cl)cc3)n2)cc1)C(=O)O` [Example 244] are 223 to 225 °C and 16.5 nM.
On the same counts, the results for `CC(C)[C@H](C(=O)NO)N(C)S(=O)(=O)c1ccc(Oc2ccccc2)cc1` [Example 253] are 110 to 111 °C and 0.039 nM.
For the molecule `CC(C)[C@H](C(=O)NO)N(Cc1ccccc1)S(=O)(=O)c1ccc(Oc2ccccc2)cc1` [Example 254], the melting point lay within 148 to 150 °C. Also, half-maximal inhibition in data set [1] (IC50) required 0.63 nM.
In the same order, the values of `CC(C)[C@H](C(=O)O)N(C)S(=O)(=O)c1ccc(-c2nnn(-c3ccccc3)n2)cc1` [Example 256] are 206 to 207 °C and 601 nM.
In the same order, the values of `CC(C)C[C@H](C(=O)O)N(C)S(=O)(=O)c1ccc(-c2nnn(-c3ccccc3)n2)cc1` [Example 257] are 132 to 132.5 °C and 776 nM.
In the same order, the values of `CSc1ccc(-c2ccc(S(=O)(=O)N(C)[C@@H](C(=O)O)C(C)C)s2)cc1` [Example 259] are 141 to 144 °C and 130 nM.

What is called melting point is the temperature, or range, at which the solid turns liquid. By IC50 is commonly meant the concentration at which inhibition is half-maximal.
